The source made the active and inactive calls. The rule behind the calls is not given here.
Tested on: CCRIS mutagenicity, Ames/micronucleus/aberration tests
Assay: CCRIS mutagenicity studies

C[C@@H]1Cc2c(Cl)cc(C(=O)NC(Cc3ccccc3)C(=O)O)c(O)c2C(=O)O1 (some centres not stated)
mutagenic call (Test System: AMES SALMONELLA TYPHIMURIUM, Strain/Indicator: TA102, Metabolic Activation: RAT, LIVER, S-9, AROCLOR 1254, Method: STANDARD PLATE): inactive; negative | mutagenic call (Test System: AMES SALMONELLA TYPHIMURIUM, Strain/Indicator: TA104, Metabolic Activation: NONE, Method: PREINCUBATION): inactive; negative | mutagenic call (Test System: AMES SALMONELLA TYPHIMURIUM, Strain/Indicator: TA104, Metabolic Activation: RAT LIVER S-9, Method: PREINCUBATION): inactive; negative | mutagenic call (Test System: AMES SALMONELLA TYPHIMURIUM, Strain/Indicator: TA1535, Metabolic Activation: HAMSTER, LIVER, S-9, AROCLOR 1254 (10 OR 30%), Method: PREINCUBATION): inactive; negative | mutagenic call (Test System: AMES SALMONELLA TYPHIMURIUM, Strain/Indicator: TA1535, Metabolic Activation: HAMSTER, LIVER, S-9, AROCLOR 1254, Method: PREINCUBATION): inactive; negative | mutagenic call (Test System: AMES SALMONELLA TYPHIMURIUM, Strain/Indicator: TA1535, Metabolic Activation: MOUSE KIDNEY S-9, NADP OR ARACHIDONIC ACID (10%), Method: MICROMETHOD): active; positive | mutagenic call (Test System: AMES SALMONELLA TYPHIMURIUM, Strain/Indicator: TA1535, Metabolic Activation: MOUSE LIVER S-9 (10%), Method: MICROMETHOD): inactive; negative | mutagenic call (Test System: AMES SALMONELLA TYPHIMURIUM, Strain/Indicator: TA1535, Metabolic Activation: NONE, Method: STANDARD PLATE): inactive; negative | mutagenic call (Test System: AMES SALMONELLA TYPHIMURIUM, Strain/Indicator: TA1535, Metabolic Activation: RAT LIVER S-9, AROCLOR 1254 (10%), Method: MICROMETHOD): inactive; negative | mutagenic call (Test System: AMES SALMONELLA TYPHIMURIUM, Strain/Indicator: TA1535, Metabolic Activation: RAT LIVER S-9, Method: PREINCUBATION): inactive; negative | mutagenic call (Test System: AMES SALMONELLA TYPHIMURIUM, Strain/Indicator: TA1535, Metabolic Activation: RAT, LIVER, S-9, AROCLOR 1254 (10 OR 30%), Method: PREINCUBATION): inactive; negative | mutagenic call (Test System: AMES SALMONELLA TYPHIMURIUM, Strain/Indicator: TA1535, Metabolic Activation: RAT, LIVER, S-9, AROCLOR 1254, Method: PREINCUBATION): inactive; negative | mutagenic call (Test System: AMES SALMONELLA TYPHIMURIUM, Strain/Indicator: TA1535, Metabolic Activation: RAT, LIVER, S-9, AROCLOR 1254, Method: STANDARD PLATE): inactive; negative | mutagenic call (Test System: AMES SALMONELLA TYPHIMURIUM, Strain/Indicator: TA1537, Metabolic Activation: NONE, Method: PREINCUBATION): inactive; negative | mutagenic call (Test System: AMES SALMONELLA TYPHIMURIUM, Strain/Indicator: TA1537, Metabolic Activation: NONE, Method: STANDARD PLATE): inactive; negative | mutagenic call (Test System: AMES SALMONELLA TYPHIMURIUM, Strain/Indicator: TA1537, Metabolic Activation: RAT LIVER S-9, Method: PREINCUBATION): inactive; negative | mutagenic call (Test System: AMES SALMONELLA TYPHIMURIUM, Strain/Indicator: TA1537, Metabolic Activation: RAT, LIVER, S-9, AROCLOR 1254, Method: STANDARD PLATE): inactive; negative | mutagenic call (Test System: AMES SALMONELLA TYPHIMURIUM, Strain/Indicator: TA1538, Metabolic Activation: MOUSE KIDNEY S-9, NADP OR ARACHIDONIC ACID (10%), Method: MICROMETHOD): active; positive | mutagenic call (Test System: AMES SALMONELLA TYPHIMURIUM, Strain/Indicator: TA1538, Metabolic Activation: MOUSE LIVER S-9 (10%), Method: MICROMETHOD): inactive; negative | mutagenic call (Test System: AMES SALMONELLA TYPHIMURIUM, Strain/Indicator: TA1538, Metabolic Activation: NONE, Method: PREINCUBATION): inactive; negative | mutagenic call (Test System: AMES SALMONELLA TYPHIMURIUM, Strain/Indicator: TA1538, Metabolic Activation: NONE, Method: STANDARD PLATE): inactive; negative | mutagenic call (Test System: AMES SALMONELLA TYPHIMURIUM, Strain/Indicator: TA1538, Metabolic Activation: RAT LIVER S-9, AROCLOR 1254 (10%), Method: MICROMETHOD): inactive; negative | mutagenic call (Test System: AMES SALMONELLA TYPHIMURIUM, Strain/Indicator: TA1538, Metabolic Activation: RAT LIVER S-9, Method: PREINCUBATION): inactive; negative | mutagenic call (Test System: AMES SALMONELLA TYPHIMURIUM, Strain/Indicator: TA1538, Metabolic Activation: RAT, LIVER, S-9, AROCLOR 1254, Method: STANDARD PLATE): inactive; negative | mutagenic call (Test System: CHINESE HAMSTER V-79, Strain/Indicator: V-79(HPRT)/6-THIOGUANINE, Metabolic Activation: NONE): inactive; negative | mutagenic call (Test System: CHINESE HAMSTER V-79, Strain/Indicator: V-79(HPRT)/6-THIOGUANINE, Metabolic Activation: RAT LIVER S-9): inactive; negative | mutagenic call (Test System: Chinese hamster lung cells, Strain/Indicator: V79 (HPRT)/6-Thioguanine, Metabolic Activation: None, Method: Standard plate): active; positive (weak) | mutagenic call (Test System: Chinese hamster lung cells, Strain/Indicator: V79 (HPRT)/6-Thioguanine, Metabolic Activation: Rat, Kidney, S-9 (phenobarbital/beta-naphthoflavone), Method: Standard plate): active; positive (weak) | mutagenic call (Test System: MOUSE LYMPHOMA, Strain/Indicator: L5178Y (TK+/TK-), Metabolic Activation: NONE, Method: SUSPENSION/PLATE): inactive; negative | mutagenic call (Test System: MOUSE LYMPHOMA, Strain/Indicator: L5178Y (TK+/TK-), Metabolic Activation: RAT, LIVER, S-9, AROCLOR 1254, Method: SUSPENSION/PLATE): inactive; negative | mutagenic call (Test System: Mouse lymphoma cells, Strain/Indicator: L5178Y (tk+/tk-), Metabolic Activation: None, Method: Microtiter): active; positive (weak) | mutagenic call (Test System: Mouse lymphoma cells, Strain/Indicator: L5178Y (tk+/tk-), Metabolic Activation: Rat, Kidney, S-9 (phenobarbital/beta-naphthoflavone), Method: Microtiter): active; positive (weak) | mutagenic call (Test System: UDS HUMAN INFANT UROTHELIAL CELLS, Strain/Indicator: THY INCORP, Metabolic Activation: NONE, Method: AUTORADIOGRAPHY): inactive; negative | mutagenic call (Test System: UDS HUMAN UROTHELIAL CELLS, Strain/Indicator: THY INCORP, Metabolic Activation: NONE, Method: AUTORADIOGRAPHY): active; positive | mutagenic call (Test System: UDS HUMAN UROTHELIAL CELLS, Strain/Indicator: THYMIDINE INCORPORATION, Metabolic Activation: NONE, Method: AUTORADIOGRAPHY): active; positive | mutagenic call (Test System: UDS PORCINE PRIMARY BLADDER EPITHELIAL CELL, Strain/Indicator: THY INCORP, Metabolic Activation: NONE, Method: AUTORADIOGRAPHY): active; positive | mutagenic call (Test System: UDS RODENT PRIMARY CELLS, Metabolic Activation: NONE, Method: AUTORADIOGRAPHY (DNA REPAIR)): inactive; negative
